PMC8151276, “An Integrated Approach toward NanoBRET Tracers for Analysis of GPCR Ligand Engagement” (Molecules, 2021)

Columns and labels:
Assay type in all cases: binding
ADORA1 = target: T1, ADORA1 (Homo sapiens, UniProt P30542); test: NanoBRET screen HiBiT-ADORA1 in HEK293
T1 construct: purchased Promega (in-house HiBiT-GPCR construct library, NanoBRET)
T1 sequence (P30542 1-326): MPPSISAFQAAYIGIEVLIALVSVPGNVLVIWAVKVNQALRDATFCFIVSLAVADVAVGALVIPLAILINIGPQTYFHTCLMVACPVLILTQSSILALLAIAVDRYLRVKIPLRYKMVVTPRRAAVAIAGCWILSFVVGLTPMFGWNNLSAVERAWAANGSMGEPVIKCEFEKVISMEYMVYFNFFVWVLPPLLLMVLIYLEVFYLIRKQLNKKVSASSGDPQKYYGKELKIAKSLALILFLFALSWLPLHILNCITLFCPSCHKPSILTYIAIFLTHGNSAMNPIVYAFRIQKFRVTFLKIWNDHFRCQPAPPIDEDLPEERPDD
Procedure: (§1) Each tracer candidate was screened across the entire library of HiBiT-GPCR constructs using NanoBRET as the detection modality. As depicted in Figure 4A, the specificity of interactions was evaluated through decrease in BRET due to competitive displacement of a bound tracer by excess parental compound. Each tracer was analyzed for binding to each HiBiT-GPCR fusion in the absence and in the presence of competing parental compound. Briefly, HEK293 cells were transfected with HiBiT-GPCR constructs diluted into promoterless DNA to reduce expression and maximize translocation to the cell surface. Each tracer candidate was then screened at concentrations of 1 μM and 0.1 μM across cells expressing these fusions. Cells were treated for 1.5 h with tracer either alone or in the presence of 20 μM competing parental compound (i.e., control). BRET was measured upon addition of purified LgBiT and subsequent complementation with HiBiT genetically fused to a GPCR. The specificity of interactions was assessed through a decrease in BRET signal due to competitive displacement of the bound tracer. To further gauge the robustness of these interactions, the fold response over the control (i.e., BRETtracer/BRETcontrol) was calculated. We chose a 1.5-fold response, which translates to ≥7-fold signal over noise as the minimal threshold required to score an interaction as positive. […]. Below we highlight the screening results obtained for our exemplary fluorescent tracers based on Clozapine, Amitriptyline and AZD1283.
(§2) HiBiT-GPCR DNA constructs were diluted in 10 mM Tris pH 8 to a final concentration of 0.01 μg/μL, arrayed in 96-well plates and stored at −20 °C. For transfection, HEK293 cells were suspended in Opti-MEM (without phenol red) supplemented with 2% fetal bovine serum (Seradigm) and 100 units/mL penicillin–streptomycin (Gibco) at a final concentration of 220,000 cells/mL and dispensed into white 96-well plates at 90 μL/well. Subsequent transfections and screens were carried using an Agilent Bravo Automated Liquid Handling Platform. First, the 96-well HiBiT DNA arrays were diluted 25-fold in Opti-MEM (without serum or phenol red) to a final concentration of 0.0004 μg/μL and 20 μL of the diluted DNAs were transferred into new 96-well plates. Next, promoterless carrier DNA (1 μg/μL) was diluted 25-fold (0.04 μg/μL) and then dispensed into the diluted arrays at 20 μL/well. Following brief mixing, Viafect transfection reagent (Promega) diluted 16-fold into Opti-MEM was dispensed into the plates at 40 μL/well. After mixing by pipetting, plates were incubated for 10 min on the pipetting station deck. The DNA-transfection reagent complexes were then added to plates containing cells. To facilitate the screen, 10 μL of DNA-transfection reagent complexes were added in duplicates to the top 4 and bottom 4 rows, resulting in two identical 48-well arrays per plate. Plates with transfected cells were incubated for 18–20 h at 37 °C/5% CO2. A screen of each tracer across the entire library using two different concentrations requires duplicate plates of transfected cells. Depending on the number of tracers being screened, transfections can be scaled up using the same ratios. The next day, for each tracer, four 20× screening solutions in tracer dilution buffer (Promega) were prepared: two duplicates at final concentration of 20 μM and two duplicates at a final concentration of 2 μM. A competing unmodified compound was added to one of each duplicate at a final concentration of 400 μM. The four resulting solutions were diluted 4-fold in Opti-MEM without serum or phenol red to generate 5× solutions (5 µM and 0.5 µM tracer +/− 100 μM competing compound). To screen the library, a BioTek MultiFlo FX liquid dispenser was used to dispense 22.5 µL of tracer solution to the top 4 rows and 22.5 µL tracer + competing compound solution to the 4 bottom rows. Plates were briefly mixed on an orbital shaker and incubated for 1.5 h at room temperature. […]

CCR1 = target: T2, CCR1 (Homo sapiens, UniProt P32246); test: NanoBRET screen HiBiT-CCR1 in HEK293
T2 construct: purchased Promega (in-house HiBiT-GPCR construct library, NanoBRET)
T2 sequence (P32246 1-355): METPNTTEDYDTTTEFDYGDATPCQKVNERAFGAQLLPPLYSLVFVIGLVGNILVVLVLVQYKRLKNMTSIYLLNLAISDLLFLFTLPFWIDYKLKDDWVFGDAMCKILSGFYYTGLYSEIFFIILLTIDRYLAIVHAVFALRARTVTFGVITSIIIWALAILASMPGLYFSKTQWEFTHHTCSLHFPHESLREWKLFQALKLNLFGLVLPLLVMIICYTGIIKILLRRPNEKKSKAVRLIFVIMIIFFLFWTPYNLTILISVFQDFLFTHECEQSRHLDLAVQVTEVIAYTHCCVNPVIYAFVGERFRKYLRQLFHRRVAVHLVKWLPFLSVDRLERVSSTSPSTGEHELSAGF
Procedure: as §1, §2

CCR3 = target: T3, CCR3 (Homo sapiens, UniProt P51677); test: NanoBRET screen HiBiT-CCR3 in HEK293
T3 construct: purchased Promega (in-house HiBiT-GPCR construct library, NanoBRET)
T3 sequence (P51677 1-355): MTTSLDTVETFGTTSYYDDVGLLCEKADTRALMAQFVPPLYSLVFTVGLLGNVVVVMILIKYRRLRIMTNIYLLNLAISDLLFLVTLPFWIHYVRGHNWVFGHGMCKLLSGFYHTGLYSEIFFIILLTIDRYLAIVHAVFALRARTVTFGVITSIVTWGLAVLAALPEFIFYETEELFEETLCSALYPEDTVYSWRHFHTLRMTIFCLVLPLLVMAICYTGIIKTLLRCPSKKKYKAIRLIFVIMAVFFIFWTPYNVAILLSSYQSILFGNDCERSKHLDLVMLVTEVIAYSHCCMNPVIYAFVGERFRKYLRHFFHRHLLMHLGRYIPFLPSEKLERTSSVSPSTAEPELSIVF
Procedure: as §1, §2

CCR5 = target: T4, CCR5 (Homo sapiens, UniProt P51681); test: NanoBRET screen HiBiT-CCR5 in HEK293
T4 construct: purchased Promega (in-house HiBiT-GPCR construct library, NanoBRET)
Procedure: as §1, §2

PDGFRB = target: T5, PDGFRB (Homo sapiens, UniProt P09619); test: NanoBRET screen HiBiT-PDGFRB in HEK293
T5 construct: purchased Promega (in-house HiBiT-GPCR construct library, NanoBRET)
Procedure: as §1, §2

T5 sequence (P09619 33-1106): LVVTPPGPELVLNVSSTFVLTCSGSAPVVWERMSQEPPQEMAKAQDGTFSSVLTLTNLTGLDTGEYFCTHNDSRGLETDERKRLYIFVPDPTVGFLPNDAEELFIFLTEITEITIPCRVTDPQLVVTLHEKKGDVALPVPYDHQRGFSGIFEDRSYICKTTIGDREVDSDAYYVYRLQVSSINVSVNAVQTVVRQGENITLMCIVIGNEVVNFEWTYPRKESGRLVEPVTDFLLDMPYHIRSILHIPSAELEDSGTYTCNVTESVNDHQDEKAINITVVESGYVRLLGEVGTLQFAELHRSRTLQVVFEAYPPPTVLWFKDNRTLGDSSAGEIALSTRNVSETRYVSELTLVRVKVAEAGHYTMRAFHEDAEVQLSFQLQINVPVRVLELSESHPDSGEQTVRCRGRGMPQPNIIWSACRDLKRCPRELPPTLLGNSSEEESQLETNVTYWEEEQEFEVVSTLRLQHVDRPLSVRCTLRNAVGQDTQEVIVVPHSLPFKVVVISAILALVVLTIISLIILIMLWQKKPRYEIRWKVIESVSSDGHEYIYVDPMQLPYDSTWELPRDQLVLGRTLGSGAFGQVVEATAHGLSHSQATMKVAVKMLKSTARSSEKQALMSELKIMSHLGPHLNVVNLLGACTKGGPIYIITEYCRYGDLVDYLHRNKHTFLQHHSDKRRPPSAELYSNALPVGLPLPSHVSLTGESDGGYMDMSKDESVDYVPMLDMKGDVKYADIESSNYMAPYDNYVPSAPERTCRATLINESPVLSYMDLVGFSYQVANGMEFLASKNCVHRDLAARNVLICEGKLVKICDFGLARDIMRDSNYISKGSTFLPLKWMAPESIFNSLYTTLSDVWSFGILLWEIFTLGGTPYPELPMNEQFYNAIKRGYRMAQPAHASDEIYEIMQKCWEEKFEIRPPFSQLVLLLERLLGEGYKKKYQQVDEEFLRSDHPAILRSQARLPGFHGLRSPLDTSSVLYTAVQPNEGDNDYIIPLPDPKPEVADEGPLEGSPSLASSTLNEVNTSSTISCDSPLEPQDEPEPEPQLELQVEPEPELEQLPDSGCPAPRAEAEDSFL
T4 sequence (P51681 whole entry): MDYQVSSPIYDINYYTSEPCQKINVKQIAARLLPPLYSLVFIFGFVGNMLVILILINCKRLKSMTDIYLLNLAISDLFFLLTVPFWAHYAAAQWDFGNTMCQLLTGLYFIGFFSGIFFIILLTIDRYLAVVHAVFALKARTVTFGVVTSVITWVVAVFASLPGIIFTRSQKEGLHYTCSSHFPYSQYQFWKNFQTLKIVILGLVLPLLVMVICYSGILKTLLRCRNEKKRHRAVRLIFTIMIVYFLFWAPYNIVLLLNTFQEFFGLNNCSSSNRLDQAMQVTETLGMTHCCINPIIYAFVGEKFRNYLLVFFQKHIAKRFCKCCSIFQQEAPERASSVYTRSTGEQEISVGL

Row | SMILES | NanoBRET Fold Response (ADORA1; ADORA1, tracer 0.1μM) | NanoBRET Fold Response (ADORA1; ADORA1, tracer 1μM) | NanoBRET Fold Response (CCR1; CCR1, tracer 0.1μM) | NanoBRET Fold Response (CCR1; CCR1, tracer 1μM) | NanoBRET Fold Response (CCR3; CCR3, tracer 0.1μM) | NanoBRET Fold Response (CCR3; CCR3, tracer 1μM) | NanoBRET Fold Response (CCR5; CCR5, tracer 0.1μM) | NanoBRET Fold Response (CCR5; CCR5, tracer 1μM) | NanoBRET Fold Response (PDGFRB; PDGFRB, tracer 0.1μM) | NanoBRET Fold Response (PDGFRB; PDGFRB, tracer 1μM) | further results
1 | COc1ccc2c(n1)c(CCNC(C)=O)cn2CCNC(=O)CCc1ccc2n1[B-](F)(F)[N+]1=C(c3ccc[nH]3)C=CC1=C2 [Azamelatonin-1-NB590] | – | – | – | – | – | – | – | – | – | – | NanoBRET Fold Response (ADORA1; 0.1μM tracer): 0.87; NanoBRET Fold Response (ADORA1; 1μM tracer): 0.95; NanoBRET Fold Response (CCR1; 0.1μM tracer): 0.90; NanoBRET Fold Response (CCR1; 1μM tracer): 1.04; NanoBRET Fold Response (CCR3; 0.1μM tracer): 1.27; NanoBRET Fold Response (CCR3; 1μM tracer): 0.96; NanoBRET Fold Response (CCR5; 0.1μM tracer): 1.29; NanoBRET Fold Response (CCR5; 1μM tracer): 0.63; NanoBRET Fold Response (PDGFRB; 0.1μM tracer): 0.56; NanoBRET Fold Response (PDGFRB; 1μM tracer): 0.56
2 | CC(C)N(CC[C@H](c1ccccc1)c1cc(CCNC(=O)c2ccc(CNC(=O)CCc3ccc4n3[B-](F)(F)[N+]3=C(c5ccc[nH]5)C=CC3=C4)cc2)ccc1O)C(C)C [Tolterodine-BZ-NB590] | 1.18 | 1.02 | 1.09 | 0.96 | 0.98 | 0.72 | 1.09 | 0.97 | 1.14 | 1.21 | –
3 | O=C(CCc1ccc2n1[B-](F)(F)[N+]1=C(c3ccc[nH]3)C=CC1=C2)NCCOCCOCCNC(=O)OCCOCCN1CCN(C2=Nc3ccccc3Sc3ccccc32)CC1 [Quetiapine-a-2-NB590] | 1.30 | 1.07 | 0.99 | 0.99 | 1.11 | 0.98 | 0.95 | 0.85 | 1.13 | 1.03 | –
4 | Cc1cc2c(s1)Nc1ccccc1N=C2N1CCN(CCCNC(=O)CCOCCOCCOCCOCCNC(=O)CCc2ccc3n2[B-](F)(F)[N+]2=C(c4ccc[nH]4)C=CC2=C3)CC1 [Olanzapine-a-2-NB590] | 1.09 | 1.22 | 1.02 | 0.98 | 1.19 | 1.22 | 1.00 | 0.89 | 0.98 | 1.05 | –
5 | O=C(CCc1ccc2n1[B-](F)(F)[N+]1=C(c3ccc[nH]3)C=CC1=C2)NCc1ccc(C(=O)NCCOCCOCCNCC(O)COc2cccc3ccccc23)cc1 (stereo not shown) [Propranolol-3-NB590] | – | – | – | – | – | – | – | – | – | – | NanoBRET Fold Response (ADORA1; ADORA1, 0.1μM): 0.98; NanoBRET Fold Response (ADORA1; ADORA1, 1μM): 0.98; NanoBRET Fold Response (CCR1; CCR1, 0.1μM): 1.03; NanoBRET Fold Response (CCR1; CCR1, 1μM): 0.97; NanoBRET Fold Response (CCR3; CCR3, 0.1μM): 1.04; NanoBRET Fold Response (CCR3; CCR3, 1μM): 1.01; NanoBRET Fold Response (CCR5; CCR5, 0.1μM): 1.09; NanoBRET Fold Response (CCR5; CCR5, 1μM): 0.96; NanoBRET Fold Response (PDGFRB; PDGFRB, 0.1μM): 1.05; NanoBRET Fold Response (PDGFRB; PDGFRB, 1μM): 0.98
6 | CN1CCN(C2=Nc3cc(Cl)ccc3N(CC(=O)NCCOCCOCCOCCOCCNC(=O)CCc3ccc4n3[B-](F)(F)[N+]3=C(c5ccc[nH]5)C=CC3=C4)c3ccccc32)CC1 [Clozapine-c-2-NB590] | – | – | – | – | – | – | – | – | – | – | NanoBRET Fold Response (ADORA1; ADORA1, 0.1μM tracer): 1.00; NanoBRET Fold Response (ADORA1; ADORA1, 1μM tracer): 0.87; NanoBRET Fold Response (CCR1; CCR1, 0.1μM tracer): 1.05; NanoBRET Fold Response (CCR1; CCR1, 1μM tracer): 0.98; NanoBRET Fold Response (CCR3; CCR3, 0.1μM tracer): 0.97; NanoBRET Fold Response (CCR3; CCR3, 1μM tracer): 0.85; NanoBRET Fold Response (CCR5; CCR5, 0.1μM tracer): 0.98; NanoBRET Fold Response (CCR5; CCR5, 1μM tracer): 0.95; NanoBRET Fold Response (PDGFRB; PDGFRB, 0.1μM tracer): 1.00; NanoBRET Fold Response (PDGFRB; PDGFRB, 1μM tracer): 0.87
7 | O=C(CCc1ccc2n1[B-](F)(F)[N+]1=C(c3ccc[nH]3)C=CC1=C2)NCc1ccc(C(=O)NCCOCCC(=O)N[C@@H]2CC[C@@]3(O)[C@H]4Cc5ccc(O)c6c5[C@@]3(CCN4CC3CC3)[C@H]2O6)cc1 [Naltrexone-3-NB590] | 0.84 | 1.23 | 1.03 | 0.66 | 1.35 | 0.89 | 1.21 | 1.11 | 0.24 | 0.95 | –
